# Measurements reported in patent US12239627B2, “Method of treating conditions related to the PGI2 receptor” (Arena Pharmaceuticals, Inc., priority 2014, dated 2025).
# Assay: Phase 1 multiple ascending dose, dose titration study with healthy subjects (adverse events, tolerated dose)
# Format: in vivo, human
# Details: for Adverse Events (no. of subjects) leading to Decrease of Dose: Abdominal pain / Adverse Events (no. of subjects) leading to Decrease of Dose: Arthralgia / Adverse Events (no. of subjects) leading to Decrease of Dose: Chest discomfort / Adverse Events (no. of subjects) leading to Decrease of Dose: Chest pain / Adverse Events (no. of subjects) leading to Decrease of Dose: Diarrhoea / Adverse Events (no. of subjects) leading to Decrease of Dose: Dizziness / Adverse Events (no. of subjects) leading to Decrease of Dose: Headache / Adverse Events (no. of subjects) leading to Decrease of Dose: Jaw pain / Adverse Events (no. of subjects) leading to Decrease of Dose: Myalgia / Adverse Events (no. of subjects) leading to Decrease of Dose: Nausea / Adverse Events (no. of subjects) leading to Decrease of Dose: Palpitations / Adverse Events (no. of subjects) leading to Decrease of Dose: Priapism / Adverse Events (no. of subjects) leading to Decrease of Dose: Vomiting: Cohort 3, twice daily
# Procedure: This study was a phase 1, randomized, double-blind, placebo-controlled, multiple-dose, dose titration study. A titration interval of 6 days was employed, with each dose being administered for at least 5 days. One goal was to determine the effect of dose titration on adverse effects.
# In each of two subject cohorts, Cohort 1 and Cohort 2, subjects were treated at each dose level for duration of 5 days with exception of the last dose level which included 7 days of treatment.
# The protocol was amended to provide for an additional cohort, Cohort 3, in order to evaluate a different dose escalation regimen, as disclosed below.
# Cohorts 1 and 2: Two groups of 15 subjects were enrolled and randomized to receive placebo (5 subjects per Cohort) or a starting dose of 0.05 mg Compound 1 (10 subjects per Cohort) on Day I. Once daily (q.d.) dosing continued through 5 days. If tolerated, the next dose escalation (placebo or 0.1 mg q.d. Compound 1) occurred on Day 6 and this dose was administered daily through Day 10.
# Subsequent dose escalations were to occur in the same manner every 6th day for up to 3 additional dose escalations if tolerated (placebo or 0.2, 0.3, and 0.4 mg Compound 1) with the final dose maintained for a duration of 7 days. The dose could be decreased (“de-escalated”) or increased (“re-escalated”) based on assessment of safety and tolerability.
# Cohort 3: One group of 25 subjects (S placebo and 20 active) were enrolled and randomized to receive a starting dose of 0.01 mg Compound 1 twice daily or placebo on Day 1. Twice daily dosing continued through 5 days. If tolerated, the next dose escalation (placebo or Compound 1 0.02 mg twice daily) occurred on Day 6 and this dose was administered daily through Day 10. Subsequent dose escalations were to occur in the same manner every 6th day for up to 4 additional dose escalations if tolerated (placebo or 0.03, 0.04. 0.05, and 0.07 mg twice daily Compound 1). The dose could be decreased (“de-escalated”) or increased (“re-escalated”) based on assessment of safety and tolerability. The doses tested in this cohort were 0.01, 0.02, 0.03, 0.04, 0.05, and 0.07 mg administered twice daily for a total daily dose of 0.02, 0.04, 0.06, 0.08, 0.1, and 0.14 mg, respectively.
# Compound 1 capsules were provided as 0.01 mg (all Cohorts) and 0.1 mg (Cohorts 1 and 2 only) strengths.
structure (smiles),measurement,setting,value
"O=C(O)COC[C@H]1CC[C@H](COC(=O)N(c2ccccc2)c2ccc(Cl)cc2)CC1 [Compound 1, 2-(((1r,4r)-4-(((4-chlorophenyl)(phenyl)carbamoyloxy)methyl)cyclohexyl)methoxy)acetic acid]",Subjects who received 0.04 mg as highest dose for at least 3 days,Cohort 3,0.04 mg-20 subjects
same,Subjects who received 0.06 mg as highest dose for at least 3 days,Cohort 3,0.06 mg-19 subjects
same,Subjects who received 0.08 mg as highest dose for at least 3 days,Cohort 3,0.08 mg-11 subjects
same,Subjects who received 0.10 mg as highest dose for at least 3 days,Cohort 3,0.10 mg-8 subjects
same,Subjects who received 0.14 mg as highest dose for at least 3 days,Cohort 3,0.14 mg-3 subjects
same,Subjects with Final Compound 1 Total Daily Dose of 0.04 mg,Cohort 3,0.04 mg-4 subjects
same,Subjects with Final Compound 1 Total Daily Dose of 0.06 mg,Cohort 3,0.06 mg-6 subjects
same,Subjects with Final Compound 1 Total Daily Dose of 0.08 mg,Cohort 3,0.08 mg-2 subjects
same,Subjects with Final Compound 1 Total Daily Dose of 0.10 mg,Cohort 3,0.10 mg-6 subjects
same,Subjects with Final Compound 1 Total Daily Dose of 0.14 mg,Cohort 3,0.14 mg-2 subjects
same,Adverse Events (no. of subjects) leading to Decrease of Dose: Abdominal pain,0.01 mg (N = 20),0 subjects
same,Adverse Events (no. of subjects) leading to Decrease of Dose: Arthralgia,0.01 mg (N = 20),0 subjects
same,Adverse Events (no. of subjects) leading to Decrease of Dose: Chest discomfort,0.01 mg (N = 20),0 subjects
same,Adverse Events (no. of subjects) leading to Decrease of Dose: Chest pain,0.01 mg (N = 20),0 subjects
same,Adverse Events (no. of subjects) leading to Decrease of Dose: Diarrhoea,0.01 mg (N = 20),0 subjects
same,Adverse Events (no. of subjects) leading to Decrease of Dose: Dizziness,0.01 mg (N = 20),0 subjects
same,Adverse Events (no. of subjects) leading to Decrease of Dose: Headache,0.01 mg (N = 20),1 subjects
same,Adverse Events (no. of subjects) leading to Decrease of Dose: Jaw pain,0.01 mg (N = 20),0 subjects
same,Adverse Events (no. of subjects) leading to Decrease of Dose: Myalgia,0.01 mg (N = 20),1 subjects
same,Adverse Events (no. of subjects) leading to Decrease of Dose: Nausea,0.01 mg (N = 20),0 subjects
same,Adverse Events (no. of subjects) leading to Decrease of Dose: Palpitations,0.01 mg (N = 20),0 subjects
same,Adverse Events (no. of subjects) leading to Decrease of Dose: Priapism,0.01 mg (N = 20),0 subjects
same,Adverse Events (no. of subjects) leading to Decrease of Dose: Vomiting,0.01 mg (N = 20),0 subjects
same,Adverse Events (no. of subjects) leading to Decrease of Dose: Abdominal pain,0.02 mg (N = 20),0 subjects
same,Adverse Events (no. of subjects) leading to Decrease of Dose: Arthralgia,0.02 mg (N = 20),1 subjects
same,Adverse Events (no. of subjects) leading to Decrease of Dose: Chest discomfort,0.02 mg (N = 20),0 subjects
same,Adverse Events (no. of subjects) leading to Decrease of Dose: Chest pain,0.02 mg (N = 20),1 subjects
same,Adverse Events (no. of subjects) leading to Decrease of Dose: Diarrhoea,0.02 mg (N = 20),1 subjects
same,Adverse Events (no. of subjects) leading to Decrease of Dose: Dizziness,0.02 mg (N = 20),0 subjects
same,Adverse Events (no. of subjects) leading to Decrease of Dose: Headache,0.02 mg (N = 20),6 subjects
same,Adverse Events (no. of subjects) leading to Decrease of Dose: Jaw pain,0.02 mg (N = 20),0 subjects
same,Adverse Events (no. of subjects) leading to Decrease of Dose: Myalgia,0.02 mg (N = 20),2 subjects
same,Adverse Events (no. of subjects) leading to Decrease of Dose: Nausea,0.02 mg (N = 20),3 subjects
same,Adverse Events (no. of subjects) leading to Decrease of Dose: Palpitations,0.02 mg (N = 20),1 subjects
same,Adverse Events (no. of subjects) leading to Decrease of Dose: Priapism,0.02 mg (N = 20),0 subjects
same,Adverse Events (no. of subjects) leading to Decrease of Dose: Vomiting,0.02 mg (N = 20),1 subjects
same,Adverse Events (no. of subjects) leading to Decrease of Dose: Abdominal pain,0.03 mg (N = 20),1 subjects
same,Adverse Events (no. of subjects) leading to Decrease of Dose: Arthralgia,0.03 mg (N = 20),0 subjects
same,Adverse Events (no. of subjects) leading to Decrease of Dose: Chest discomfort,0.03 mg (N = 20),1 subjects
same,Adverse Events (no. of subjects) leading to Decrease of Dose: Chest pain,0.03 mg (N = 20),0 subjects
same,Adverse Events (no. of subjects) leading to Decrease of Dose: Diarrhoea,0.03 mg (N = 20),1 subjects
same,Adverse Events (no. of subjects) leading to Decrease of Dose: Dizziness,0.03 mg (N = 20),0 subjects
same,Adverse Events (no. of subjects) leading to Decrease of Dose: Headache,0.03 mg (N = 20),1 subjects
